The subject of one test is SKMEL19. Description: Combination assay, SKMEL19. The test is classed as cell-based. As to the method: (§1) The combination index (CI) of combinations of certain example compounds and various chemotherapeutic agents in the CellTitetI-Glo® in vitro cell proliferation assays may be tested. A combination index score is calculated by the Chou and Talalay method (CalcuSyn software, Biosoft). The strength of synergy is scored using the ranking system Chou and Talalay: CI less than 0.8 indicates synergy, CI between 0.8 and 1.2 indicates additivity and CI greater than 1.2 indicates antagonism.
(§2) The EC50 values of representative combinations are also calculated. The individually measured EC50 values of the chemotherapeutic agent and the example compounds are compared to the EC50 value of the combination. The cell lines are characterised by tumor type. Combination assays are performed as described in: “Pim 1 kinase inhibitor ETP-45299 suppresses cellular proliferation and synergizes with PI3K inhibition”. Blanco-Aparicio, Carmen; Collazo, Ana Maria Garcia; Oyarzabal, Julen; Leal, Juan F.; Albaran, Maria Isabel; Lima, Francisco Ramos; Pequeno, Belen; Ajenjo, Nuria; Becerra, Mercedes; Alfonso, Patricia; Reymundo, Maria Isabel; Palacios, Irene; Mateos, Genoveva; Quinones, Helena; Corrionero, Ana; Carnero, Amancio; Pevarello, Paolo; Lopez, Ana Rodriguez; Fominaya, Jesus; Pastor, Joaquin; Bischoff, James R. Cancer Letters (Shannon, Ireland) 2011, 300(2), 145-153

The test system of a further test is SW620. Description: Combination assay, SW620. The test is classed as cell-based, human. In outline:
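Cells treated with example compounds combined with chemotherapeutic agents, proliferation read by CellTiter-Glo. Combination index from the Chou–Talalay method (CI <0.8 synergy, 0.8–1.2 additivity, >1.2 antagonism); EC50 of the combination also derived alongside single-agent EC50s.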

In test [1] the test system is SW620 human colon cancer xenografts. Description: In vivo target modulation studies (P-STAT1 S727 in tumors). Also noted: species or system mice. Particulars: single oral dose 5 mg/kg; tumors sampled 1, 4, 8 and 24 h. The procedure:
The in vivo potency of the compounds was measured determining target modulation in human colon xenografts. Eight weeks old female athymic nude mice (Harlan Sprague Dawley Inc) are subcutaneously grafted with 10*10^6 SW620 human colon cancer cells. When the tumors reach a size of 200-400 mm^3 the mice are dosed orally with 5 mg/kg of Example 43 or vehicle. Tumors are excised 1, 4, 8 and 24 h after administration (n=3 mice per time point) and are processed for western blot and for HPLC/MS/MS in order to determine the concentration for Example 43 in the tumor. […] The supernatants are removed and protein concentration is determined by Bradford method (Bio-Rad Protein Assay). […] 30-60 μg of total proteins extracts are analyzed by western blot for STAT1P/STAT1 modulation as has been described in the cellular CDK8 inhibition assay. […] Specific solid phase extraction methods as well as LC-MS/MS analysis and quantification methods were developed, reaching LLOQs of 1 ng/ml. […]

The next test concerns SW620 cells. Description: Cell cycle assay (propidium iodine, flow cytometry). The test is classed as cell-based, human. Particulars: SW620, 24 h, increasing concentrations. The procedure:
Compounds can be screened for their ability to affect the cell cycle using a propidium iodine assay and analysis by flow cytometry. SW620 are plated at 500000 cells per well in 6-well plates (Solmeglas 13118) in RPMI media (Sigma-Aldrich R6504) supplemented with 10% foetal bovine serum (Sigma-Aldrich F7524), Penicillin/Streptomycin solution diluted 1:100 (Gibco 15070-063), and fungizone (Gibco, 15290-018), and allowed to adhere overnight at 37° C. in 5% CO2. Cells are then treated 24 h hours with compounds at final concentration of 5, 2.5, 1 and 0.5 μM. Cells are collected by trypsinization and centrifugation at 1250 rpm and washed with PBS (Sigma Ref. D8537). Cells are fixated with 70% cold ethanol (Merck Ref 100983)) and kept at 4° C. at least for 12 hours. After centrifugation, cells are washed with PBS and DNA is stained with a solution of 0.2 mg/mL RNAase (Quiagen Ref 1007885) and 0.02 mg/mL propidium iodine (Sigma Ref P4864). After 30 minutes incubation at room temperature in the dark cells are analyzed by FACSCalibur™ (BD biosciences) and Flowjo software.

Another test deals with A549. Description: Combination assay, A549. The test is classed as cell-based. As to the method:
as §1, §2

The mark [2] stands for this setting: SKMEL19, combination with Crizotinib.
[3] abbreviates: SKMEL19, combination with Elesclomol.
Where [4] appears, read: SW620, combination with ABT-751.
[5] abbreviates: SW620, combination with Alisertib.
Where [6] appears, read: SW620, combination with Crizotinib.
Where [7] appears, read: SW620, combination with Elesclomol.
Setting [8] is: SW620, combination with Oxaliplatin.
The mark [9] stands for this setting: A549, combination with Elesclomol.

One may read the GI50 as the concentration that inhibits growth by half. For `CCn1c(C(N)=O)cc2c1-c1ccncc1OC2(C)C` [Example 43], the GI50 in the test with SKMEL19 (Homo sapiens, SK-MEL19, SKMEL19, example compound alone, read-out: CDK8 inh GI50) came out at 1.25 µM; in the test on SW620 (Homo sapiens, SW-620, SW620, example compound alone, read-out: CDK8 inh GI50) it was 4 µM; in the test on A549 (Homo sapiens, A549, example compound alone, read-out: CDK8 inh GI50), 5 µM. The “Combination index (CI)” value in the test on SKMEL19 (setting [2]) is 0.55; in the test with SKMEL19 (setting [3]), 0.49; in the test on SW620 (setting [4]) it was 0.18; in the test on SW620 (setting [5]) it was 0.52; with SW620 (setting [6]), 0.65; with SW620 (setting [7]), 0.05. Also, the “Combination index (CI)” value in the test on SW620 (setting [8]) is 0.53; in the test with SW620 (SW620, combination with Taxol), 0.28; in the test on A549 (setting [9]), 0.63. The Synergy entry is “++ (0.3 < CI < 0.7 (++))” in the test with SKMEL19 (setting [2]); “++ (0.3 < CI < 0.7 (++))” in the test with SKMEL19 (setting [3]); “+++ (0.1 < CI < 0.3 (+++))” in the test on SW620 (setting [4]); “++ (0.3 < CI < 0.7 (++))” with SW620 (setting [5]); “++ (0.3 < CI < 0.7 (++))” with SW620 (setting [6]); “++++ (CI < 0.1 (++++))” in the test with SW620 (setting [7]). Moreover, the Synergy entry in the test with SW620 (setting [8]) is “++ (0.3 < CI < 0.7 (++))”; with SW620 (SW620, combination with Taxol) it was “+++ (0.1 < CI < 0.3 (+++))”; with A549 (setting [9]) it was “++ (0.3 < CI < 0.7 (++))”. The “target modulation in vivo, P-STAT1 (S727)” value in test [1] is “Clear target modulation is observed at 1 and 4 h”. In addition, in the test with SW620 cells, the “effect on cell cycle” value is “induced G2M arrest and apoptosis”.

(Values after patent US10208056B2, “Condensed tricyclic compounds as protein kinase inhibitors” (FUNDACIÓN DEL SECTOR PÚBLICO ESTATAL CENTRO NACIONAL DE …, priority 2015, dated 2019).)
